Source: US11071775B2, “Combination immunotherapy for treating cancer” (H. Lee Moffitt Cancer Center and Research Institute, Inc., priority 2015, dated 2021)
Read-outs that look alike come from different tables or passages of the source.

Experiments:
[1] = 38 patients; cited from earlier work
[2] = test system: PD-L1 expressing or negative tumors; conditions: cited from earlier work; for overall response rate (ORR): all patients
[3] = cited from earlier work
[4] = test system: advanced stage NSCLC; conditions: cited from earlier work
[5] = test system: MDSCs; test: ATRA in patients with metastatic renal cell carcinoma: MDSC and DC; type: in vivo, human
[6] = test system: human MDSCs; conditions: in vitro; cited from earlier work
[7] = test system: Retinoid Acid Receptor (RAR) and Retinoid X Receptor (RXR); conditions: cited from earlier work
[8] = test system: MDSC; test: Randomized phase II study: proportion of MDSC before and after immunization; type: in vivo, human
Protocol: To assess immune response, PBMCs were collected from patients at different time points during the treatment (FIG. 4) and kept frozen in liquid nitrogen. All samples from one patient were analyzed simultaneously to reduce inter-experimental variability. PBMCs were thawed, incubated overnight in complete medium (RPMI-1640 supplemented with antibiotics and 10% FBS) and then used in experiments. Cell viability was greater than 80%.

[9] = test system: Gr-1+ cells; conditions: in vitro; cited from earlier work
[10] = test system: Gr-1+ cells; conditions: tumor-bearing mice, cited from earlier work
[11] = test system: ES-SCLC; test: Randomized phase II study in ES-SCLC (NCT00617409): objective response and survival; type: in vivo, human; conditions: arm A (observation, no vaccine)
Description: Patients with ES-SCLC were enrolled to this randomized phase II study. […] After receiving initial chemotherapy, (4-6 cycles of a standard platinum/etoposide regimen as first-line chemotherapy), patients were enrolled and randomized. Additional eligibility included; stable disease (SD) or better with Eastern Cooperative Oncology Group (ECOG) performance status of 0 to 1, and adequate organ function were screened for initial registration approximately 4-6 weeks after the completion of first-line chemotherapy. Prophylactic cranial irradiation (PCI) was permitted.
Each vaccine consisted of 2-5×10^6 Ad-p53 DCs. Cells were injected intradermally, at two-week intervals for three times (three vaccine doses). Patients were restaged approximately 2 weeks after the 3rd vaccine dose. Patients without signs of disease progression (PD) underwent a second leukapheresis and then vaccinated 3 more times at 4-week intervals. Patients on Arm C also received 150 mg/m^2 ATRA for 3 days prior to each vaccine administration (followed by vaccine administration on the next day).
All patients were followed until evidence of PD at which time they received salvage or second line chemotherapy with single agent paclitaxel (200 mg/m2 IV every 3 weeks, 4-6 cycles).
The primary objective was to evaluate the efficacy of second line paclitaxel in the two experimental regimens (Arms B and C). […]

For “MK-3475: humanized monoclonal antibody of the IgG4/kappa isotype blocking the interaction between PD-1 and its ligands”, the drug-related deaths [1] is given as “no drug-related deaths”, the “grade 3/4 event (grade 3 pulmonary edema)” value [1] is given as “one” and the ORR ([2]; PD-L1 expressing tumors, RECIST, (16-30%)) is given as 23%. The ORR ([2]; PD-L1 expressing tumors, irRC, 95% CI 14-26%) was 19%, the ORR ([2]; PD-L1 negative tumors, RECIST, (2-23%)) was 9% and the ORR ([2]; PD-L1 negative tumors, irRC, 95% CI 4-27%) was 13%. The “overall response rate (ORR)” value ([2]; RECIST v1.1, 95% CI 15-26%) was 20%, the “overall response rate (ORR)” value ([2]; irRC, 10 mg/kg Q2W or Q3W, 95% CI 13-24%) was 18% and the “patients who developed grade 3/4 pneumonitis” value ([3]; 2 patients in each schedule) was “Four”. The “drug-related adverse event: arthralgia” value ([3]; 217 patients) was 6.1%, the “drug-related adverse event: pruritis” value ([3]; 217 patients) was 5.4% and the “drug-related adverse event: pyrexia” value ([3]; 217 patients) was 3.6%. For the same compound, the “patients with grade 3/4 drug-related adverse events” value ([3]; 217 patients) was “Six”, the “patients responding to therapy” value ([4]; PD-L1 high tumors, Six of 9, 95% CI 30-93%) was 67% and the “patients responding to therapy” value ([4]; PD-L1 low tumors, 0/22, 95% CI 0-15%) was 0%. The “overall objective response rate” value ([4]; investigator-assessed irRC, 38 patients) was 24%.

In the case of `CC1=C(/C=C/C(C)=C/C=C/C(C)=C/C(=O)O)C(C)(C)CCC1` [ATRA, all-trans-retinoic acid], the MDSC/DC ratio [5] is listed as “improved MDSC/DC ratio to control levels”, the “presence of MDSC” value [5] is listed as “significantly decreased the presence of MDSC” and the “fraction of MDSCs becoming DC-like” value [6] is listed as “⅔”. For the same compound, the “fraction of MDSCs becoming myeloid” value [6] was “⅓”, the “relative affinity for RAR and RXR” value [7] was “higher affinity to RAR” and the “proportion of CD11b+CD14−CD33+ MDSC” value ([8]; patients treated with ATRA (arm C), p=0.03) was “decreased less dramatically but also significantly”. The “presence of Lin−HLA-DR−CD33+ MDSC” value ([8]; patients treated with ATRA (arm C: vaccine plus 150 mg/m2 ATRA), p=0.02) was “decreased more than two-fold”, the “differentiation and immunosuppressive effect of Gr-1+ cells” value [9] was “differentiates these cells in vitro and removes their immunosuppressive effect” and the “presence of Gr-1+ cells” value ([10]; in vivo administration) was “dramatically reduces the presence of Gr-1^+ cells”. The “effect of tumor vaccines” value [10] was “improves the effect of tumor vaccines”.

With `CC(=O)O[C@H]1C(=O)[C@@]2(C)[C@H]([C@H](OC(=O)c3ccccc3)[C@]3(O)C[C@H](OC(=O)[C@H](O)[C@@H](NC(=O)c4ccccc4)c4ccccc4)C(C)=C1C3(C)C)[C@]1(OC(C)=O)CO[C@@H]1C[C@@H]2O` [paclitaxel] the “OR to paclitaxel (or other second line treatment)” value [11] was 1/11.
